Values of other authors in US5152997A, “Method and device for transdermally administering testosterone across nonscrotal skin at therapeutically effective levels” (Theratech, Inc., priority 1991, dated 1992).

What was measured:
[1] = e.g., neck, back, chest, arms; for delivery of 5-10 mg/day through a limited area

Structure (SMILES) | systemic availability of testosterone (oral administration) | degradation by the liver (administered orally) | permeability to testosterone of skin areas normally used for transdermal delivery [1]
CCCCCCCCCCC(=O)O[C@H]1CC[C@H]2[C@@H]3CCC4=CC(=O)CC[C@]4(C)[C@H]3CC[C@]12C [testosterone undecanoate] | provides systemically available testosterone |  | 
C[C@]12CC[C@H]3[C@@H](CCC4=CC(=O)CC[C@@]43C)[C@@H]1CC[C@@H]2O [testosterone] |  | rapidly degraded by the liver | too low to permit delivery of the amounts of testosterone needed for therapy
